The record followed here is US6579881B2 (Eisai Co., Ltd., priority 1997, dated 2003).

The structures appear in SMILES notation. Where a name gives a salt, the structure may show the parent alone. Read-outs that look alike come from different tables or passages of the source.

One assay concerns the target T1, serotonin 1A receptor (Rattus norvegicus, UniProt P19327).
T1 construct: To the receptor fraction of the hippocampus were added a test compound and 0.5 nM of [^3H]; 8-hydroxy-dipropylaminotetralin; from tissue; host or cells: SD rat hippocampus, membrane (receptor) fraction
T1 sequence (P19327 1-422): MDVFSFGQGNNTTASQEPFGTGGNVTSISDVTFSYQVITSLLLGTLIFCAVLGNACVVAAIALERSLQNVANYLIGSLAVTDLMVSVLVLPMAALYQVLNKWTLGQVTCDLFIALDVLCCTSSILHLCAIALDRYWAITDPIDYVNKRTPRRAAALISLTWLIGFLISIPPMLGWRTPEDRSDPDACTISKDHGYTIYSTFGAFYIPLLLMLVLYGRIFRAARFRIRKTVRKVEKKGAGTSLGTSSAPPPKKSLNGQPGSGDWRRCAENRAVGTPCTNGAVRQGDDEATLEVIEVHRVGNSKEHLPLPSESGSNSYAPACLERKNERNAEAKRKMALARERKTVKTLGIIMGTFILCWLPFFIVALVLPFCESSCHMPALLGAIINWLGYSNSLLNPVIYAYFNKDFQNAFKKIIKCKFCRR
Put plainly: Binding test on [3H] 8-hydroxy-dipropylaminotetralin (serotonin 1A receptor). The conditions noted are these: [3H] 8-OH-DPAT 0.5 nM, receptor fraction of rat hippocampus; read-out: 5HT1a.

The next assay concerns the target serotonin 2 receptor (Rattus norvegicus, UniProt P14842). As to the kind of experiment: Binding test on [3H] ketanserin (serotonin 2 receptor). The conditions noted are these: [3H] ketanserin 0.3 nM, receptor fraction of rat cerebral cortex; read-out: 5HT2.
The target in the next assay is α1 adrenalin receptor. Put plainly: Binding test on [3H] prazosin (α1 adrenalin receptor). The arrangement: species or system rat.
Setting [1] is: [3H] prazosin about 0.2 nM, receptor fraction of rat cerebral cortex.

serotonin 2 receptor, sequence (P14842 whole entry): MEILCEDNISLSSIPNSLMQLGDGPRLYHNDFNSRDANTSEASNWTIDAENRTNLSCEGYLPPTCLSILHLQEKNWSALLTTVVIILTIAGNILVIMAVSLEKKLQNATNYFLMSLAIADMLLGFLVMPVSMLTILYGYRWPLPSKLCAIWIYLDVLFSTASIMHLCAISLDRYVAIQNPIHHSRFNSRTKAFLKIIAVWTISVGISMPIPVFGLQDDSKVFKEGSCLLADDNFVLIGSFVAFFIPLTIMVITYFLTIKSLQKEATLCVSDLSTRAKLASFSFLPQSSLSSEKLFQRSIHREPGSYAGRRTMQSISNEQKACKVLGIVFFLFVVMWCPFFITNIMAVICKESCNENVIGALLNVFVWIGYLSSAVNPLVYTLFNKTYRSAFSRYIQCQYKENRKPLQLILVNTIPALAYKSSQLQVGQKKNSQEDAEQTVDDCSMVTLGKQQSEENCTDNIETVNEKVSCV
Protocol for α1 adrenalin receptor: Methysergide maleate was dissolved in distilled water before using.
Use was made of SD rats aged 6 to 8 weeks.
The rats were sacrificed by dcapitation to extirpate the cerebra.
The hippocampus was mixed with 50 times (on the wet weight basis) as much a 0.32 M sucrose solution while the cortex was mixed with 10 times as much the same solution. Each mixture was homogenized by using a Teflon glass homogenizer and centrifuged at 1,000×g for 10 min. The supernatant thus obtained was further centrifuged at 20,000×g for 20 min. The obtained precipitate was re-suspended in 50 times (based on the intial wet weight; in the case of the hippocampus) or 10 times (in the case of the cortex) as much a 50 mM Tris hydrochloride (pH 7.4) and incubated at room temperature for 30 min. After centrifuging at 20,000×g for 20 min, the obtained precipitate was further suspended and centrifuged twice each in the same manner. The precipitate thus obtained was suspended in 100 times (based on the initial wet weight; in the case of the hippocampus) or 20 times (in the case of the cortex) as much a 50 mM Tris hydrochloride solution (pH 7.4) to thereby give a receptor fraction. This receptor fraction was stored at −80° C. until using.
(Binding Test on [^3H] Prazosin)
Next, it was filtered through a glass filter with the use of a cell harvester. After washing the glass filter with 50 mM Tris hydrochloride (pH 7.4), the radioactivity of the receptor was measured with a liquid scintillation counter. The binding detected in the presence of 10 μM of phentolamine was referred to as the nonspecific binding.
Subsequently, the abilities of typical examples of the compounds of the present invention to bind to the α1 adrenalin receptor were evaluated by the test method described above.

Turning to `CNOOSCc1ccc2c(c1)N(C1CCN(CCc3ccc(F)cc3)CC1)CC2` [Example 164, 1-[1-(4-fluorophenethyl)piperidin-4-yl]-6-(N-methylsulfamoylmethyl)indoline], the Ki at serotonin 1A receptor was found to be 0.54 nM; at serotonin 2 receptor it was 34.1 nM; at α1 adrenalin receptor (setting [1]), 638 nM.
For `COc1ccc2c(c1)C(N1CCN(CCc3ccc(F)cc3)CC1)CC2` (stereo not drawn) [Example 250, 1-{4-[2-(4-fluorophenyl)ethyl]piperazin-1-yl}-6-methoxyindan Hydrochloride], the results for the Ki on serotonin 1A receptor, at serotonin 2 receptor and on α1 adrenalin receptor were 1.6 nM, 18.8 nM and 263 nM, respectively.
Taken in the same sequence, the figures for `Fc1ccc(CCN2CCN(C3CCCc4cnccc43)CC2)cc1` (stereo not drawn) [Example 283, 5-{4-[2-(4-fluorophenyl)ethyl]piperazin-1-yl}-5,6,7,8-tetrahydroisoquinoline Hydrochloride] were 39.5 nM, 40.9 nM and 197 nM.
On to `CCC(O)c1ccc2ccn(C3CCN(CCc4ccc(F)cc4)CC3)c2c1` (stereo not drawn) [Example 319, 1-[1-(4-fluorophenethyl)piperidin-4-yl]-6-(1-hydroxyproyl)indole Oxalate], for which the Ki at serotonin 1A receptor turned out to be 0.56 nM; at serotonin 2 receptor, 24.5 nM; on α1 adrenalin receptor (setting [1]), 42.5 nM.
Taken in the same sequence, the figures for `COc1cccc(CCN2CCC(N3CCc4ccccc43)CC2)c1` [Example 19, 1-[1-(3-methoxyphenethyl)piperidin-4-yl]indoline] were 8.8 nM, 7 nM and 55.5 nM.
The matching figures for `O=C(Cc1ccc2ccn(C3CCN(CCc4ccc(F)cc4)CC3)c2c1)NCc1ccccn1` [Example 341, 1-[1-(4-fluorophenethyl)piperidin-4-yl]-6-(pyridin-2-yl)methylcarbamoylmethylindole Oxalate]: 2.08 nM, 0.67 nM and 47.6 nM.
As to `CCCC(=O)NCc1ccc2ccn(C3CCN(CCc4ccc(F)cc4)CC3)c2c1` [Example 362, 1-[1-(4-fluorophenethyl)piperidin-4-yl]-6-(n-butyryl)aminomethylindole], the Ki is 0.46 nM at serotonin 1A receptor, 3.54 nM on serotonin 2 receptor and 144 nM on α1 adrenalin receptor (setting [1]).
Taken in the same sequence, the figures for `O=C1CCCN1Cc1ccc2ccn(C3CCN(CCc4ccc(F)cc4)CC3)c2c1` [Example 358, 1-[1-(4-fluorophenethyl)piperidin-4-yl]-6-(2-pyrrolidon-1-yl)methylindole] were 0.73 nM, 14 nM and 41.8 nM.
The matching figures for `O=C(NCc1ccc2ccn(C3CCN(CCc4ccc(F)cc4)CC3)c2c1)n1ccnc1` [Example 368, 1-[1-(4-fluorophenethyl)piperidin-4-yl]-6-imidazocarbonylaminomethylindole]: 1.63 nM, 0.56 nM and 37.6 nM.
Taken in the same sequence, the figures for `c1ccc2c(c1)CCN2C1CCN(CC2COc3ccccc3O2)CC1` (stereo not drawn) [Example 77, 1-{1-[(1,4-benzodioxan-2-yl)methyl]piperidin-4-yl}indoline] were 44.5 nM, 13.7 nM and 249 nM.
In the case of `CC(=O)NCc1ccc2ccn(C3CCN(CCCc4ccc(F)cc4)CC3)c2c1` [Example 360, 1-{1-[3-(4-fluorophenyl)propyl]-piperidin-4-yl}-6-acetamidomethylindole], the Ki was 26.6 nM at serotonin 1A receptor, over 20 nM at serotonin 2 receptor and 690 nM at α1 adrenalin receptor (setting [1]).
The matching figures for `COc1cccc(Cc2ccc3c(c2)N(C2CCN(CCc4ccc(F)cc4)CC2)CC3)n1` [Example 187, 1-[1-(4-fluorophenethyl)piperidin-4-yl]-6-[1-(2-methoxypyridin-6-yl)methyl]indoline]: 65 nM, 5.01 nM and over 200 nM.
The matching figures for `CC1CN(C2CCN(CCc3ccc(F)cc3)CC2)c2ccccc21` (stereo not drawn) [Example 216, 1-[1-(4-fluorophenethyl)piperidin-4-yl]-3-methylindoline]: 4.7 nM, 42.9 nM and 81.6 nM.
Taken in the same sequence, the figures for `O=S1(=O)CCCN1Cc1ccc2ccn(C3CCN(CCc4ccc(F)cc4)CC3)c2c1` [Example 326, 1-[1-(4-fluorophenethyl)piperidin-4-yl]-6-(1,3-propanesultam-2-yl)methylindole] were 0.4 nM, over 20 nM and 167 nM.
As to `COc1ccc2c(c1)N(C1CCN(CCc3ccc(F)cc3)C1)CC2` (stereo not drawn) [Example 292, 1-[1-(4-fluorophenethyl)pyrrolidin-3-yl]-6-methoxyindoline], the Ki on serotonin 1A receptor was 92 nM; at serotonin 2 receptor it was 58.8 nM; on α1 adrenalin receptor (setting [1]) it was 178 nM.
The matching figures for `CC(O)c1ccc2ccn(C3CCN(CCc4ccc(F)cc4)CC3)c2c1` (stereo not drawn) [Example 392, 1-[1-(4-fluorophenethyl)piperidin-4-yl]-6-(1-hydroxyethyl)indole Oxalate]: 0.65 nM, 38.1 nM and 25 nM.
Taken in the same sequence, the figures for `COc1ccc2c(c1)N(C1CCCN(CCc3ccc(F)cc3)CC1)CC2` (stereo not drawn) [Example 291, 1-[1-(4-fluorophenethyl)homopiperidin-4-yl]-6-methoxyindoline] were 6.9 nM, 101 nM and 172 nM.
Taken in the same sequence, the figures for `CC(=O)NCc1ccc2c(C=O)cn(C3CCN(CCc4ccc(F)cc4)CC3)c2c1` [Example 370, 1-[1-(4-fluorophenethyl)piperidin-4-yl]-3-formyl-6-acetamidomethylindole] were over 20 nM, over 20 nM and 256 nM.
As for `O=Cc1ccc2ccn(C3CCN(CCc4ccccc4F)CC3)c2c1` [Example 390, 1-[1-(2-fluorophenethyl)piperidin-4-yl]-6-formylindole], the values for the Ki at serotonin 1A receptor, on serotonin 2 receptor and at α1 adrenalin receptor (setting [1]) were 0.99 nM, 11.6 nM and 34.3 nM, respectively.
Take `O=C(CCCO)NCc1ccc2ccn(C3CCN(CCc4ccc(F)cc4)CC3)c2c1` [Example 329, 1-[1-(4-fluorophenethyl)piperidin-4-yl]-6-(4-hydroxybutyroylamidomethyl)indole Oxalate]: the figures for the Ki on serotonin 1A receptor, on serotonin 2 receptor and on α1 adrenalin receptor (setting [1]) were 2.06 nM, 2.41 nM and 149 nM, respectively.
`O=C1NCCN1Cc1ccc2ccn(C3CCN(CCc4ccc(F)cc4)CC3)c2c1` [Example 355, 1-[1-(4-fluorophenethyl)piperidin-4-yl]-6-(2-imidazolidonyl)methylindole]: the Ki at serotonin 1A receptor came to 0.35 nM; at serotonin 2 receptor it was 6.87 nM; at α1 adrenalin receptor (setting [1]), 39.5 nM.
Taken in the same sequence, the figures for `COc1ccc(C(O)c2ccc3ccn(C4CCN(CCc5ccc(F)cc5)CC4)c3c2)cn1` (stereo not drawn) [Example 318, 1-[1-(4-fluorophenethyl)piperidin-4-yl]-6-[(2-methoxypyridin-5-yl)hydroxymethyl]indole Oxalate] were 1.49 nM, 8.3 nM and 46.6 nM.
With `CC(=O)N(C)Cc1ccc2ccn(C3CCN(CCc4ccc(F)cc4)CC3)c2c1` [Example 359, 1-[1-(4-fluorophenethyl)piperidin-4-yl]-6-N-methylacetamidomethylindole], the Ki worked out at 0.71 nM at serotonin 1A receptor, 7.39 nM at serotonin 2 receptor and 75.9 nM at α1 adrenalin receptor (setting [1]).
Taken in the same sequence, the figures for `CN(C)CCC(=O)NCc1ccc2ccn(C3CCN(CCc4ccc(F)cc4)CC3)c2c1` [Example 378, 1-[1-(4-fluorophenethyl)piperidin-4-yl]-6-(3-N,N-dimethylaminopropionyl)aminomethylindole] were 14.2 nM, 1.54 nM and 43.7 nM.
Taken in the same sequence, the figures for `CC(=O)NCc1ccc2ccn(C3CCN(CCc4ccc(C(C)O)cc4)CC3)c2c1` (stereo not drawn) [Example 388, 1-{4-[(1-hydroxyethyl)phenethyl]piperidin-4-yl}-6-acetamidomethylindole] were 2.26 nM, over 20 nM and 366 nM.
The matching figures for `OCCOc1ccc(CCN2CCC(N3CCc4ccccc43)CC2)cc1` [Example 26, 1-{1-[4-(2-hydroxyethoxy)phenethyl]piperidin-4-yl}indoline]: 2.9 nM, 19.5 nM and 51.1 nM.
Regarding `CS(=O)(=O)NCc1ccc(CCN2CCC(N3CCc4ccccc43)CC2)cc1` [Example 38, 1-[1-(4-methanesulfonylaminomethylphenethyl)piperidin-4-yl]indoline], the Ki on serotonin 1A receptor is 15 nM; on serotonin 2 receptor, 21.8 nM; at α1 adrenalin receptor (setting [1]), 244 nM.
Taken in the same sequence, the figures for `O=C(Cc1ccc2ccn(C3CCN(CCc4ccc(F)cc4)CC3)c2c1)NCC(O)CO` (stereo not drawn) [Example 340, 1-[1-(4-fluorophenethyl)piperidin-4-yl]-6-(1,2-dihydroxypropan-3-yl)carbamoylmethylindole Oxalate] were 3.02 nM, 2.84 nM and 340 nM.
Taken in the same sequence, the figures for `CC(=O)NCc1ccc2ccn(C3CCN(CCc4cccnc4)CC3)c2c1` [Example 386, 1-{1-[2-(3-Pyridyl)ethyl]piperidin-4-yl}-6-acetamidomethylindole] were 5.38 nM, over 20 nM and 26.2 nM.
